The numbers were not newly measured in patent US4076804A, “Erythromycin therapy” (Abbott Laboratories, priority 1976, dated 1978), which cites them from elsewhere.

For this data set the following is noted: general statement, no test described.

For the compound `CCOC(=O)CCC(=O)O[C@H]1[C@H](O[C@@H]2[C@@H](C)[C@H](O[C@H]3C[C@@](C)(OC)[C@@H](O)[C@H](C)O3)[C@@H](C)C(=O)O[C@H](CC)[C@@](C)(O)[C@H](O)[C@@H](C)C(=O)[C@H](C)C[C@@]2(C)O)O[C@H](C)C[C@@H]1N(C)C` [EES, erythromycin ethyl succinate], the toxicity entry is “very low toxicity”.
